Data as given in US8436178B2, “Imidazoquinolines with immuno-modulating properties” (AstraZeneca AB, priority 2007, dated 2013).

Experiments:
[1] = molecular target: T1, human TLR7 (Homo sapiens, UniProt Q9NYK1); test: Human TLR7 assay (SEAP reporter in HEK293 cells); assay type: cell-based; details: SEAP induction in HEK293 cells expressing human TLR7, overnight incubation at 37° C., 0.1% DMSO
T1 construct: expressed in transfected cells; host or cells: HEK293 cell line stably expressing the pNiFty2-SEAP reporter plasmid; TLR7 in pUNO vector, blasticidin selection
T1 sequence (Q9NYK1 27-1049): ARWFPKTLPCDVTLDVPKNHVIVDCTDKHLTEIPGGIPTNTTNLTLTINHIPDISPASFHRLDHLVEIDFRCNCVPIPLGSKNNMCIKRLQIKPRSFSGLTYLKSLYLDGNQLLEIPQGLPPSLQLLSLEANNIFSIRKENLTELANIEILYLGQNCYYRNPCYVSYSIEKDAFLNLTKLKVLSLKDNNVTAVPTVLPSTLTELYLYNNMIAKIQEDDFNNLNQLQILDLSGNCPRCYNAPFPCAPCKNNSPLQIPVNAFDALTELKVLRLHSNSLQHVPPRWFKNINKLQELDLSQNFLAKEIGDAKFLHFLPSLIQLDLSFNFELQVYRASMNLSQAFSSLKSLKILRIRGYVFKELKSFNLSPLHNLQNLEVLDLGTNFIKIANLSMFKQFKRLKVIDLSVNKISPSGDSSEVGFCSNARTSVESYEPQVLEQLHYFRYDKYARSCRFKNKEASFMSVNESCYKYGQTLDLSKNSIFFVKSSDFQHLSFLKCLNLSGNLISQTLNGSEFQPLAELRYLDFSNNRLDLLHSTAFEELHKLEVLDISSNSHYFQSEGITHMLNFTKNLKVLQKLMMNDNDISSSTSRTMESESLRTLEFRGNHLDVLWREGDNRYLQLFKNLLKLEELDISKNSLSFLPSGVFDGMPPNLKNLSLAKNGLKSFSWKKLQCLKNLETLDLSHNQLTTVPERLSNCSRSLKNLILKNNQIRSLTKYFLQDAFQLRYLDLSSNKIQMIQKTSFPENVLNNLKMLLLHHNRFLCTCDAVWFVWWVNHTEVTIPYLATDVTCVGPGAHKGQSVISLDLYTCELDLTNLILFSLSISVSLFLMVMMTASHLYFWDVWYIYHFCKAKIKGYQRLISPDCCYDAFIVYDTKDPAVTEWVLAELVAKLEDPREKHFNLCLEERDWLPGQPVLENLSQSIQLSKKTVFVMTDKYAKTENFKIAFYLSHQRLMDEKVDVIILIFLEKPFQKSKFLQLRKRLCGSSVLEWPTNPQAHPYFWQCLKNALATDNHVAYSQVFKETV
From the text: The most common variant sequence of human TLR7 (represented by the EMBL sequence AF240467) was cloned into the mammalian cell expression vector pUNO and transfected into a HEK293 cell line already stably expressing the pNiFty2-SEAP reporter plasmid; integration of the reporter gene was maintained by selection with the antibiotic zeocin. Transfectants with stable TLR7 expression were selected using the antibiotic blasticidin. In this reporter cell-line, expression of secreted alkaline phosphatase (SEAP) is controlled by an NFkB/ELAM-1 composite promoter comprising five NFkB sites combined with the proximal ELAM-1 promoter. TLR signaling leads to the translocation of NFkB and activation of the promoter results in expression of the SEAP gene. TLR7-specific activation was assessed by determining the level of SEAP produced following overnight incubation of the cells at 37° C. with the standard compound in the presence of 0.1% (v/v) dimethylsulfoxide (DMSO). Concentration dependent induction of SEAP production by compounds was expressed as the concentration of compound which produced half of the maximal level of SEAP induction for that compound (pEC50).

[2] = test system: Male Brown Norway rats; test: Antigen-induced pulmonary inflammation in a rat asthma model (OVA challenge, BALF); assay type: in vivo; details: BALF 48 h after challenge, Mean ± SE (n = 8)
From the text: Rats were sensitised and challenged to produce allergic airway inflammation in a similar manner to that described by Underwood et al (British Journal of Pharmacology 2002; 137: 263-275, 2002). Male Brown Norway rats were sensitized subcutaneously with ovalbumin (OVA) and aluminum hydroxide on day 0, and challenged with aerosolized OVA solution on day14.

[3] = 0.1 mg/kg intratracheally 24 h before and 24 h after OVA-challenge
[4] = 1 mg/kg intratracheally 24 h before and 24 h after OVA-challenge

## CCCCc1nc2c(N)nc3ccccc3c2n1CCCN(Cc1ccc(CC(=O)OC)cc1)C(=O)CN(C)C [Example 3, Methyl 2-(4-((N-(3-(4-amino-2-butyl-1H-imidazo[4,5-c]quinolin-1-yl)propyl)-2-(dimethylamino)acetamido)methyl)phenyl)acetate]
[1]
  EC50: 79.4 nM
[2]; [3]
  Eosinophiles (cells/BALF): 67.2 ± 16.3 cells/BALF
  IL-5 (pg/ml BALF): 18.0 ± 8.7 pg/ml BALF
  IL-13 (pg/ml BALF): <4.9 pg/ml BALF
[2]; [4]
  Eosinophiles (cells/BALF): 36.2 ± 11.3 cells/BALF
  IL-5 (pg/ml BALF): 11.3 ± 7.5 pg/ml BALF
  IL-13 (pg/ml BALF): <4.9 pg/ml BALF
